{"source": "patent US10709765B2", "about": "“Composition for inhibiting survival or growth of tubercle bacillus by adjusting polarization of macrophage, and method using same” (priority 2016, dated 2020)", "system": "Mycobacterium tuberculosis", "assay_type": "cell-based", "key": {"[1]": {"conditions": "anti-tuberculosis drug alone, […]"}}, "note": "Like-named read-outs stand apart in the source and are kept apart here.", "data": [{"compound": "NC(=O)c1cnccn1", "note": "[Pyrazinamide]", "values": [{"measurement": "number of intracellular Mycobacterium tuberculosis", "setting": "[1]", "result": "the number of Mycobacterium tuberculosis was reduced"}]}, {"compound": "NNC(=O)c1ccncc1", "note": "[Isoniazid]", "values": [{"measurement": "number of intracellular Mycobacterium tuberculosis", "setting": "[1]", "result": "the number of Mycobacterium tuberculosis was reduced"}]}, {"compound": "CC[C@@H](CO)NCCN[C@@H](CC)CO", "note": "[Ethambutol]", "values": [{"measurement": "number of intracellular Mycobacterium tuberculosis", "result": "the number of Mycobacterium tuberculosis was reduced"}]}]}
